According to ChEMBL document CHEMBL1201862, “PubChem BioAssay data set” (2004):
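These data come from cells grown in 96-well plates and exposed to compound for 48 hours at five concentrations. GI50 = concentration required for 50% inhibition of growth.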 The source made the active and inactive calls. No stated cut-off is given here; in the data, active = GI50 up to about 1.1 µM and inactive = higher.

How the values were obtained:
Assay in all cases: NCI-60 cell line screen, 48 h
IGROV-1 = test system: IGROV-1
BT-549 = test system: BT-549
OVCAR-3 = test system: OVCAR-3
OVCAR-4 = test system: OVCAR-4
SR = test system: SR
SW-620 = test system: SW-620
A549 = test system: A549
MDA-MB-435 = test system: MDA-MB-435
KM12 = test system: KM12
786-0 = test system: 786-0
MDA-N = test system: MDA-N
HCT-116 = test system: HCT-116
SK-MEL-5 = test system: SK-MEL-5
HOP-92 = test system: HOP-92
CAKI-1 = test system: CAKI-1
COLO 205 = test system: COLO 205
M14 = test system: M14
CCRF-CEM = test system: CCRF-CEM
UACC-62 = test system: UACC-62
UACC-257 = test system: UACC-257

Measured: GI50

CC1=Nc2nc3ccccc3n2C(C)(C)C1
inactive: IGROV-1 > 100 µM | BT-549 > 100 µM | OVCAR-3 > 100 µM | OVCAR-4 > 100 µM | SR > 100 µM | SW-620 > 100 µM | A549 > 100 µM | MDA-MB-435 > 100 µM | KM12 > 100 µM | 786-0 > 100 µM | MDA-N > 100 µM | HCT-116 > 100 µM | SK-MEL-5 > 100 µM | HOP-92 > 100 µM | CAKI-1 > 100 µM | COLO 205 > 100 µM | M14 > 100 µM | CCRF-CEM > 100 µM | UACC-62 > 100 µM | UACC-257 > 100 µM

NC(=O)c1ccc(S(=O)(=NS(=O)(=O)c2ccccc2)c2ccc(C(N)=O)cc2)cc1
inactive: IGROV-1 > 100 µM | BT-549 > 100 µM | OVCAR-3 > 100 µM | OVCAR-4 > 100 µM | SR > 100 µM | SW-620 > 100 µM | A549 > 100 µM | MDA-MB-435 > 100 µM | KM12 > 100 µM | 786-0 > 100 µM | MDA-N > 100 µM | HCT-116 > 100 µM | SK-MEL-5 > 100 µM | HOP-92 > 100 µM | CAKI-1 > 100 µM | COLO 205 > 100 µM | M14 > 100 µM | CCRF-CEM > 100 µM | UACC-62 > 100 µM | UACC-257 > 100 µM

COC(=O)C(NC(=O)CNC(=O)CSc1nnc(COc2ccc(Cl)cc2)n1-c1ccccc1)C(C)C (stereo not given)
inactive: IGROV-1 18.8 µM | BT-549 18.5 µM | OVCAR-3 17.3 µM | OVCAR-4 22.1 µM | SR 11.1 µM | SW-620 20.2 µM | A549 31.3 µM | MDA-MB-435 21.2 µM | KM12 18.5 µM | 786-0 18.4 µM | MDA-N 21.6 µM | HCT-116 16.2 µM | SK-MEL-5 16.2 µM | HOP-92 20.8 µM | CAKI-1 14.7 µM | COLO 205 19.5 µM | M14 18.7 µM | CCRF-CEM 21.7 µM | UACC-62 16.6 µM | UACC-257 18 µM

CCN(CC)c1ccc2cc(C(N)=O)/c(=N/c3ccc(F)cc3)oc2c1
inactive: IGROV-1 26.7 µM | BT-549 > 100 µM | OVCAR-3 > 100 µM | OVCAR-4 41.3 µM | SR 4.65 µM | SW-620 > 100 µM | A549 91 µM | MDA-MB-435 > 100 µM | KM12 17.6 µM | 786-0 14.8 µM | MDA-N > 100 µM | HCT-116 5.07 µM | SK-MEL-5 > 100 µM | HOP-92 18.7 µM | CAKI-1 45.9 µM | COLO 205 > 100 µM | M14 > 100 µM | CCRF-CEM > 100 µM | UACC-62 26.4 µM | UACC-257 > 100 µM

COc1cccc(C2SCC(=O)N2c2ccc(-n3c(-c4ccccc4)nc4ccccc4c3=O)cc2)c1OC (stereo not given)
inactive: IGROV-1 > 100 µM | BT-549 > 100 µM | OVCAR-3 > 88.7 µM | OVCAR-4 > 100 µM | SR > 100 µM | SW-620 > 100 µM | A549 > 100 µM | MDA-MB-435 > 100 µM | KM12 > 100 µM | 786-0 > 100 µM | MDA-N > 100 µM | HCT-116 > 100 µM | SK-MEL-5 > 100 µM | HOP-92 > 100 µM | CAKI-1 > 100 µM | COLO 205 > 100 µM | M14 > 100 µM | CCRF-CEM > 100 µM | UACC-62 > 38.5 µM | UACC-257 > 100 µM

CC(NNC(=O)c1cc[n+]([BH2-]C#N)cc1)c1ccccc1 (stereo not given)
inactive: IGROV-1 > 100 µM | BT-549 > 100 µM | OVCAR-3 > 100 µM | OVCAR-4 > 100 µM | SR > 100 µM | SW-620 > 100 µM | A549 > 100 µM | MDA-MB-435 > 100 µM | KM12 > 100 µM | 786-0 > 100 µM | MDA-N > 100 µM | HCT-116 > 100 µM | SK-MEL-5 > 100 µM | HOP-92 > 100 µM | CAKI-1 > 100 µM | COLO 205 > 100 µM | M14 > 100 µM | CCRF-CEM > 100 µM | UACC-62 > 100 µM | UACC-257 > 100 µM

Cc1[nH]c(/C=C2\C(=O)Nc3ccccc32)c(C)c1CCC(=O)O [ORANTINIB]
inactive: IGROV-1 21.9 µM | BT-549 34.1 µM | OVCAR-3 22.1 µM | OVCAR-4 33.6 µM | SR 23.9 µM | SW-620 25.7 µM | A549 33.9 µM | MDA-MB-435 36.5 µM | KM12 4.37 µM | 786-0 51.4 µM | MDA-N 27.2 µM | HCT-116 31.1 µM | SK-MEL-5 26.5 µM | HOP-92 21.8 µM | CAKI-1 22.1 µM | COLO 205 20.6 µM | M14 23.1 µM | CCRF-CEM 34.7 µM | UACC-62 32.2 µM | UACC-257 23.7 µM
